# Data: patent US20230220331A1, “TEMPORARY TREATMENT MEDIUM, TREATMENT KIT, EMBRYOGENESIS ARREST INHIBITOR, EMBRYOGENESIS ARREST INHIBITORY METHOD, DEVELOPMENTAL ENGINEERING PRODUCT PREPARATION METHOD, TRANSPLANTATION METHOD, THERAPEUTIC METHOD, AND DEVELOPMENTAL ENGINEERING PRODUCT” (priority 2020, published 2023)
# Experiments:
# [1] = tested on: Pronuclear stage embryo of C57BL/6J; test: Flox mouse production by the 2STEP method, Mecp2 / Drb1 (Treatment Example 2); type: cell-based
# Procedure: 1. Up to 3 hours before TAKE, Y-27632-added mWM medium (Y-27632 final concentration 10 μM, an example of the “temporary treatment medium” of this example), Y-27632-free mWM medium (an example of “normal medium” of this example), 5 drops of each medium were dropped on 35 mm Petri dish, and then covered with paraffin oil. For the drops, twice the number of the drops plates to be performed TAKE were prepared.
# 2. Pronuclear stage embryos were collected, placed in Y-27632-added mWM medium, and cultured for about 30 minutes to 1 hour (temporary treatment).
# 3. After that, the first TAKE was performed.
# 3a. In the case of frozen eggs, after the first TAKE, they were placed in a Y-27632-added mWM medium and cultured for about 30 minutes to 1 hour (temporary treatment).
# 3b. In the case of unfrozen eggs, after the first TAKE, they were placed in a Y-27632-added mWM medium and cultured under 37° C. and 5% CO2 (5% O2) conditions until the next day (temporary treatment).
# 4. After the temporary treatment, the embryos were placed in Y-27632-free mWM medium and cultured at 37° C. and 5% CO2 (5% O2) conditions until the next day.
# 5. Both were confirmed at the next day, and the embryos at the 2-cell stage were subjected to the second TAKE.
# 6. After the second TAKE, the embryos were placed in Y-27632-added mWM medium and cultured for about 30 minutes to 1 hour (temporary treatment).
# 7. Then, they were transferred to Y-27632-free mWM medium. If necessary, culture was continued or embryo transfer was performed.
# Therefore, in this preparation example, the temporary treatment medium containing Y-27632 was temporarily treated before and after the electroporation (EP) of the 2STEP method. Pronuclear stage embryo of C57BL/6J (CLEA Japan, Inc.) were used as an in-vitro-culture and female MCH (CLEA Japan, Inc.) were used as recipient.
# The present inventors conducted an experiment to obtain Flox mice by the 2STEP method targeting the Mecp2 gene.
# In Table 2, “m” indicates treatment with the normal medium, and “Y” indicates temporary treatment with the temporary treatment medium. […] That is, “m->m” uses the normal medium in the both step, “m->Y” was temporarily treated with the temporary treatment medium only in the first electroporation step, and “Y->Y” was temporarily treated with the temporary treatment medium in both steps.
# In each column, the proportions that the loxP sequence is inserted only on the left side by the first electroporation step (Left loxP), the loxP sequence is inserted only on the right side by the second electroporation step (Right loxP), and both loxP sequences inserted by both steps (2loxP) were respectively shown.
# [2] = tested on: frozen embryos of the inbred mouse B6J strain (blastocyst stage); test: Surviving embryos after re-freezing and thawing of blastocysts (Treatment Example 9); type: cell-based
# Procedure: Then, in the early embryos of the inbred mouse B6J strain, an example of using frozen embryos preserved at the blastocyst stage, using the normal medium or the temporary treatment medium according to the present embodiment before and after the manipulation, and comparing whether the occurrence changes is described. In this treatment example, as the temporary treatment medium, a Y-27632-added mWM medium so as to be 10 μM was used (in this example, it is referred to as “Y+ medium”). In addition, as the normal medium, an mWM medium to which Y-27632 was not added was used (In this example, it is referred to as “Y− medium”). As a treatment, the prepared frozen embryos were thawed and developed as they were in Y− medium until the blastocyst stage. Then, half of the embryos that had developed up to the blastocyst were transferred to Y+ medium and placed for 30 minutes. After that, the embryos were transferred to Y− medium again and placed for 30 minutes. Then, the embryos treated with Y+ medium and the embryos not treated were frozen in one tube, respectively. Both tubes of embryos were then thawed and placed in the normal medium for 10 minutes. Then, the embryos were evenly divided into Y+ medium and Y− medium, respectively, and placed for 1 hour. Then, again, each tube of embryos was returned to Y− medium in each tube and the embryos were observed. […]
# [3] = tested on: pronuclear stage embryos of inbred rats F344; test: Generation of Flox inbred rats (individuals) by one-step method (Treatment Example 12); type: cell-based, rat; conditions: F344, floxed p53 1STEP, high concentration, many pulses
# Procedure: The pronuclear stage embryos of inbred rats similar to those of Treatment Example 6 according to Example 1 were knocked in by an electroporation method (1STEP method) by using a high concentration ssODN, and further individual preparations were performed. As in the above-mentioned treatment example 6, insertion of the LoxP that was not knocked in at the normal ssODN concentration and the number of transfer pulses was performed with the same temporary treatment as in the above-mentioned Example 1. Specifically, before and after electroporation, 1 hour of the temporary treatment, 24 hours of culture in the normal medium (waiting period), and 1 hour of the temporary treatment were performed. This made it possible to double the concentration of ssODN and the number of electroporations and to knocked in. Further, when the concentration of Cas9 was increased 5 times, Flox inbred rats were obtained by one electroporation.
# [4] = tested on: unfrozen pronuclear stage embryo (1 cell) of the inbred rat F344; test: Genome-edited individuals by unfrozen 1-cell TAKE of F344 (Treatment Example 16); type: cell-based; conditions: F344 unfrozen 1 cell; for NUMBER OF NEWBORNS: 2× gRNA, 14 pulses, 20% reduction rate; for KO rate (Large deletion) (%): KO individuals / newborns analyzed
# Source text: Next, in the same manner as in Treatment Example 1 according to Example 1, a knock-out by the electroporation method was also produced in an unfrozen pronuclear stage embryo (1 cell) of the inbred rat F344. The conditions at this time were that the gRNA concentration was twice the specified amount, the pulse was 14 times, and the reduction rate was 20%.
# [5] = group Y → Y, 2STEP, Mecp2-Flox, blastocysts, listed as Y
# [6] = group m → Y, 2STEP, target Mecp2-Flox
# [7] = Y+ before freezing and Y+ after thawing, 26 embryos
# [8] = Y+ before freezing, Y− after thawing, 26 embryos
# [9] = Y− before freezing, Y+ after thawing, 20 embryos
structure (smiles),measurement,setting,value
"C[C@@H](N)[C@H]1CC[C@H](C(=O)Nc2ccncc2)CC1 [Y-27632, trans-4-[(1R)-1-Aminoethyl]-N-4-pyrid inylcyclohexanecarboxamide]",Flox neonates obtained (%),"[1]; 2STEP, Mecp2, neonates, Y-27632 added",4%
same,Left loxP (proportion inserted),"[1]; group Y → Y (temporary treatment in both steps), 2STEP, Mecp2-Flox",1/15
same,Left loxP (%),"[1]; group Y → Y, 2STEP, Mecp2-Flox",(6.7%)
same,Right loxP (%),"[1]; group Y → Y, 2STEP, Mecp2-Flox",(13.3%)
same,Right loxP (proportion inserted),"[1]; group Y → Y, 2STEP, Mecp2-Flox",2/15
same,"2loxP (%), Flox blastocysts","[1]; group Y → Y, 2STEP, Mecp2-Flox, blastocysts",7%
same,"2loxP (%), Flox blastocysts",[1]; [5],(6.7%)
same,"2loxP (proportion, Flox blastocysts)",[1]; [5],1/15
same,2loxP (%),[1]; [6],(0%)
same,"2loxP (proportion, both loxP inserted)",[1]; [6],0/17
same,Left loxP (%),[1]; [6],(5.9%)
same,Left loxP (proportion inserted),[1]; [6],1/17
same,Right loxP (%),[1]; [6],(5.9%)
same,Right loxP (proportion inserted),[1]; [6],1/17
same,inbred strains of Flox mice obtained by the 2STEP method,"[1]; two types of genes (Mecp2, Drb1)",obtained only from the experimental groups to which Y-27632 were added
same,"NUMBER OF OUTGROWTH, 24 hours after thawing",[2]; [7],(11)
same,surviving embryos 3 HOURS AND A HALF AFTER THAWING,[2]; [7],12
same,surviving embryos 24 HOURS AFTER THAWING,[2]; [7],24
same,surviving embryos IMMEDIENTLY AFTER THAWING,[2]; [7],7
same,RECOVERY RATE,"[2]; Y+ before freezing and Y+ after thawing, 26 embryos, frozen twice, listed as Y+",92%
same,RECOVERY RATE,"[2]; Y+ before freezing and Y+ after thawing, 26 embryos, frozen twice, listed as Y+ medium",up to 92%
same,"NUMBER OF OUTGROWTH, 24 hours after thawing",[2]; [8],(7)
same,RECOVERY RATE,[2]; [8],70%
same,surviving embryos 3 HOURS AND A HALF AFTER THAWING,[2]; [8],11
same,surviving embryos 24 HOURS AFTER THAWING,[2]; [8],14
same,surviving embryos IMMEDIENTLY AFTER THAWING,[2]; [8],6
same,"NUMBER OF OUTGROWTH, 24 hours after thawing",[2]; [9],(3)
same,RECOVERY RATE,[2]; [9],55%
same,surviving embryos 3 HOURS AND A HALF AFTER THAWING,[2]; [9],5
same,surviving embryos 24 HOURS AFTER THAWING,[2]; [9],11
same,surviving embryos IMMEDIENTLY AFTER THAWING,"[2]; Y− before freezing, Y+ after thawing, 20 embryos, Y-27632 10 μM",3
same,NUMBER OF FLOX INDIVIDUALS / FLOX (2 SITES),[3]; 92 transplanted embryos,1/9
same,Flox individuals %,[3]; listed as +Y,11%
same,Flox individuals %,[3]; listed as Y,11.1%
same,NUMBER OF NEWBORNS,"[4]; 25 TAKE embryos, 1 recipient",4
same,Number of KO individuals (large deletion),"[4]; 25 TAKE embryos, 1 recipient, 4 newborns analyzed",0
same,KO rate (Large deletion) (%),[4]; 25 TAKE embryos,(0%)
same,NUMBER OF NEWBORNS,"[4]; 75 TAKE embryos, 3 recipients",16
same,Number of KO individuals (large deletion),"[4]; 75 TAKE embryos, 3 recipients, 13 newborns analyzed",7
same,KO rate (Large deletion) (%),[4]; 75 TAKE embryos,(53.8%)
